Experimental data from publication PMC11783601, “Analogue-Sensitive Inhibition of Histone Demethylases Uncovers Member-Specific Function in Ribosomal Protein Synthesis” (Journal of the American Chemical Society, 2025).
Values joined by “and” are separate entries in the source; they are usually repeats but may differ in a detail not shown here. Identical values can stand only once.

Target: T1, KDM4A F185A (asKDM4A) in HEK293T cells (Homo sapiens, UniProt O75164, F185A)
T1 construct: we generated the F185A mutation in full-length KDM4A carrying all of the functional domains; host or cells: HEK293T
T1 sequence (O75164 1-1064 F185A): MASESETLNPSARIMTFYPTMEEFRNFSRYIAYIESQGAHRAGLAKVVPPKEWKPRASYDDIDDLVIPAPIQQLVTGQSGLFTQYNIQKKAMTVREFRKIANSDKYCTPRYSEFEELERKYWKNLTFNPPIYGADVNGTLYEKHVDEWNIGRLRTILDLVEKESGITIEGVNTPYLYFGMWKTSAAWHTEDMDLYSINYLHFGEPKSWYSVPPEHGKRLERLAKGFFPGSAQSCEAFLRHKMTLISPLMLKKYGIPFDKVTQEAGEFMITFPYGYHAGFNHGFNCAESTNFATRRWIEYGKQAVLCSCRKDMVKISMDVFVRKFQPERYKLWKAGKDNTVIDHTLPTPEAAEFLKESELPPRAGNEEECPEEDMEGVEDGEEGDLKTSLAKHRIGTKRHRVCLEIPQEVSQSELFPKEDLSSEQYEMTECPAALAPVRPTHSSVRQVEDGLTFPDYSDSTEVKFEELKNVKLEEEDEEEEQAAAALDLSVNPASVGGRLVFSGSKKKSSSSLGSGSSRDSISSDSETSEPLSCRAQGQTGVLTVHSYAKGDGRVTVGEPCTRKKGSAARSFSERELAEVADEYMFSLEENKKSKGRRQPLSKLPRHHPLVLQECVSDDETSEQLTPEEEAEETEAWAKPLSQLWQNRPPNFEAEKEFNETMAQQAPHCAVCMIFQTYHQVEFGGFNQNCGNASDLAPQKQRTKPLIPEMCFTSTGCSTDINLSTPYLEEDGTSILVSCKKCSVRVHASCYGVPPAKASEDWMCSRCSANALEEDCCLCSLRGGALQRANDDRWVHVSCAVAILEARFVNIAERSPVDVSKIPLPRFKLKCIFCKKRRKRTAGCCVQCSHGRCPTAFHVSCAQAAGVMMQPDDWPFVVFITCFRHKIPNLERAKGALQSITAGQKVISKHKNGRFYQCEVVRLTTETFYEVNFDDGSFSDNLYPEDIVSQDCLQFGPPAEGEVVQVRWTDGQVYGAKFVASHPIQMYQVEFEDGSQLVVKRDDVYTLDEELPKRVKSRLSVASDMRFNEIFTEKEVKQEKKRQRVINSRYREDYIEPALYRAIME
Test: Histone extraction, digestion and tandem mass spectrometry (relative abundance of histone modifications)
Format: cell-based
Conditions: peptide form; samples 6A_1, 6A_2
Procedure: HEK293T cells were transiently transfected with asKDM4A and treated with varying concentrations of 6A or 6B. […] To further confirm the activity of the enzyme–inhibitor pair, we performed tandem mass spectrometry of tryptic histones isolated from HEK293T cells expressing asKDM4A in the presence or absence of 100 μM 6A. […]
22. Histone extraction, digestion and tandem mass spectrometry
HEK 293-T cells (ATCC CRL-1573) were plated into 6-well plates (Corning) in DMEM (Corning) supplemented with 10% FBS (Corning) and 1X Antibiotic/Antimycin
(Penicillin/Streptomycin/Fungiozone) (Cytiva HyClone) in an incubator held at 37 °C with 5%
CO2. At 75% confluency, cells were transfected with 2.5 µg KDM4A F185A or Empty Vector with 5µg Thermo Turbofect (FERR0531). After 4 hours, the media was washed and 200 µM of 6A or equivalent volume of DMSO was added and left to incubate at 37 °C for 24 hours. Cells were then washed with 1X PBS (Corning) followed by trypsinization (Gibco TrypLE™ Express Enzyme). Collected cells were centrifuged at 3000xg for 3 minutes, followed by washing with 1X PBS and centrifuged for an additional 3000xg for 3 minutes. Histone proteins were extracted from the pellet as described by25 to ensure good-quality identification and quantification of single histone marks. Briefly, cell pellets were dissolved in 100 µL of cold 0.2 M H2SO4 and incubated for 2 hours rotating in a cold room (4 °C). Aliquots were then centrifuged at 3400xg for 5 minutes […]
at 4 °C and the supernatant was added to a fresh tube. 100% cold TCA was then added to a final volume of 33% volume/volume TCA/supernatant and left to incubate for 1 hour in a cold room (4 °C). Samples were then centrifuged at 3400xg for 5 min at 4 °C and the supernatant was discarded. The precipitate was then washed with cold acetone/0.1% HCl and centrifuged at 3400xg for 5 minutes at 4 °C. The supernatant was discarded, and the precipitate was washed with cold acetone and centrifuged at 3400xg for 5 minutes at 4 °C. The supernatant was discarded, and the pellet was dried using a vacuum centrifuge.
The pellet was dissolved in 50 mM ammonium bicarbonate, pH 8.0, and histones were subjected to derivatization using 5 µL of propionic anhydride and 14 µL of ammonium hydroxide (all Sigma Aldrich) to balance the pH at 8.0. The mixture was incubated for 15 min and the procedure was repeated. Histones were then digested with 1 µg of sequencing grade trypsin (Promega) diluted in 50mM ammonium bicarbonate (1:20, enzyme:sample) overnight at room temperature.
Derivatization reaction was repeated to derivatize peptide N-termini. The samples were dried in a […]
Sample desalting: Prior to mass spectrometry analysis, samples were desalted using a 96-well plate filter (Orochem) packed with 1 mg of Oasis HLB C-18 resin (Waters). Briefly, the samples were resuspended in 100 µl of 0.1% TFA and loaded onto the HLB resin, which was previously equilibrated using 100 µl of the same buffer. After washing with 100 µl of 0.1% TFA, the samples were eluted with a buffer containing 70 µl of 60% acetonitrile and 0.1% TFA and then dried in a […]
LC-MS/MS Acquisition and Analysis: Samples were resuspended in 10 µl of 0.1% TFA and loaded onto a Dionex RSLC […] (Thermo Scientific), coupled online with an Orbitrap Fusion Lumos (Thermo Scientific). Chromatographic separation was performed with a two-column system, consisting of a C-18 trap cartridge (300 µm ID, 5 mm length) and a picofrit analytical column (75 µm ID, 25 cm length) packed in-house with reversed-phase Repro-Sil Pur C18-AQ 3 µm resin. Peptides were separated using a 30 min gradient from 1-30% buffer B (buffer A: 0.1% formic acid, buffer B: 80% acetonitrile + 0.1% formic acid) at a flow rate of 300 nl/min.
The mass spectrometer was set to acquire spectra in a data-independent acquisition (DIA) mode.

CCCCCCCCOC(=O)C(=O)NC(CC(C)C)C(=O)O [6A, L-Leu octyl-ester NOG]
Relative abundance, H3_9_17 K9me1S10ph: 7.8% and 0.0004%
Relative abundance, H3_9_17 K9me1S10phK14ac: 0.0342% and 0.0031%
Relative abundance, H3_9_17 K9me2: 22.1% and 17.2%
Relative abundance, H3_9_17 K9me2K14ac: 19.6% and 31.3%
Relative abundance, H3_9_17 K9me2S10ph: 0.317% and 0.0091%
Relative abundance, H3_9_17 K9me2S10phK14ac: 0.125% and 0.1%
Relative abundance, H3_9_17 K9me3: 10.5% and 10.1%
Relative abundance, H3_9_17 K9me3K14ac: 4.9% and 8.1%
Relative abundance, H3_9_17 K9me3S10ph: 0.178% and 0.2%
Relative abundance, H3_9_17 K9me3S10phK14ac: 0.0363% and 0.177%
Relative abundance, H3_9_17 K14ac: 8.4% and 11.5%
Relative abundance, H3_9_17 S10ph: 0.0768% and 0.0083%
Relative abundance, H3_9_17 S10phK14ac: 0.0443% and 0.0008%
Relative abundance, H3_9_17 unmod: 9.8% and 11.8%
Relative abundance, H3_18_26 K18ac: 0.249% and 0.34%
Relative abundance, H3_18_26 K18acK23ac: 0.647% and 0.316%
Relative abundance, H3_18_26 K18me1: 0.0% and 0.0012%
Relative abundance, H3_18_26 K18me1K23me1: 0.0%
Relative abundance, H3_18_26 K23ac: 50.6% and 44.0%
Relative abundance, H3_18_26 K23me1: 0.0% and 0.0005%
Relative abundance, H3_18_26 unmod: 48.5% and 55.3%
Relative abundance, H3_27_40 K27ac: 0.0296% and 0.0%
Relative abundance, H3_27_40 K27me1: 3.2% and 3.4%
Relative abundance, H3_27_40 K27me1K36me1: 5.3% and 3.7%
Relative abundance, H3_27_40 K27me1K36me2: 8.3% and 9.8%
Relative abundance, H3_27_40 K27me1K36me3: 1.2% and 1.9%
Relative abundance, H3_27_40 K27me1S28ph: 0.0041% and 0.002%
Relative abundance, H3_27_40 K27me2: 15.4% and 12.9%
Relative abundance, H3_27_40 K27me2K36me1: 9.5% and 8.5%
Relative abundance, H3_27_40 K27me2K36me2: 22.1% and 30.2%
Relative abundance, H3_27_40 K27me2S28ph: 0.0281% and 0.0017%
Relative abundance, H3_27_40 K27me3: 11.7% and 6.9%
Relative abundance, H3_27_40 K27me3K36me1: 3.6% and 2.6%
Relative abundance, H3_27_40 K27me3K36me2: 3.5% and 4.6%
Relative abundance, H3_27_40 K27me3S28ph: 0.0216% and 0.0012%
Relative abundance, H3_27_40 K36me1: 1.9% and 1.7%
Relative abundance, H3_27_40 K36me2: 3.2% and 4.8%
Relative abundance, H3_27_40 K36me3: 5.9% and 4.4%
Relative abundance, H3_27_40 S28ph: 0.0007% and 0.1%
Relative abundance, H3_27_40 unmod: 5.0% and 4.6%
Relative abundance, H3_41_49 Y41ph: 0.001% and 0.173%
Relative abundance, H3_41_49 unmod: 100.0% and 99.8%
Relative abundance, H3_54_63 K56ac: 0.0%
Relative abundance, H3_54_63 K56me2: 0.0%
Relative abundance, H3_54_63 K56me3: 0.0%
Relative abundance, H3_73_83 K79ac: 0.0%
Relative abundance, H3_73_83 K79me3: 4.6% and 0.0%
Relative abundance, H4_4_17 K5ac: 1.3% and 2.1%
Relative abundance, H4_4_17 K5acK8ac: 0.3% and 1.0%
Relative abundance, H4_4_17 K5acK8acK12ac: 0.261% and 1.3%
Relative abundance, H4_4_17 K5acK8acK12acK16ac: 0.0284% and 2.6%
Relative abundance, H4_4_17 K5acK8acK16ac: 0.279% and 0.9%
Relative abundance, H4_4_17 K5acK12ac: 0.8% and 3.1%
Relative abundance, H4_4_17 K5acK12acK16ac: 0.471% and 3.1%
Relative abundance, H4_4_17 K5acK16ac: 0.7% and 2.5%
Relative abundance, H4_4_17 K8ac: 1.3% and 1.4%
Relative abundance, H4_4_17 K8acK12ac: 0.211% and 0.6%
Relative abundance, H4_4_17 K8acK12acK16ac: 1.2% and 4.4%
Relative abundance, H4_4_17 K8acK16ac: 1.5% and 3.9%
Relative abundance, H4_4_17 K12ac: 2.8% and 4.2%
Relative abundance, H4_4_17 K12acK16ac: 3.3% and 7.5%
Relative abundance, H4_4_17 K16ac: 24.2% and 24.4%
Relative abundance, H4_4_17 unmod: 61.3% and 37.2%
Relative abundance, H4_20_23 K20ac: 0.3% and 1.3%
Relative abundance, H4_20_23 K20me1: 48.4% and 36.1%
Relative abundance, H4_20_23 K20me3: 3.5% and 3.6%
Relative abundance, H4_20_23 unmod: 37.7% and 34.8%
Relative abundance, H4_24_35 unmod: 100.0%
Relative abundance, H4_40_45 K44ac: 0.0025% and 0.039%
Relative abundance, H4_40_45 unmod: 100.0%
Relative abundance, H4_79_92 unmod: 100.0%
Relative abundance, H33_27_40 K27ac: 0.0069% and 0.0%
Relative abundance, H33_27_40 K27me1: 3.6% and 2.5%
Relative abundance, H33_27_40 K27me1K36me1: 4.8% and 3.5%
Relative abundance, H33_27_40 K27me1K36me2: 11.0% and 11.1%
Relative abundance, H33_27_40 K27me1K36me3: 2.1% and 3.4%
Relative abundance, H33_27_40 K27me1S28ph: 0.0023% and 0.024%
